Reference: patent US10925960B2, “Antigen delivery system” (SRI INTERNATIONAL, priority 2014, dated 2021)

System: LLC1 cells
Assay: Coculture of liposome-treated LLC1 cells with lymphocytes from H250-vaccinated C57BL/6 mice, IFNγ secretion
Assay type: cell-based, mouse
Settings: LLC1 cells treated with H1299.3-targeted liposomes containing H250 in presence of inhibitor, fixed, cocultured with lymphocytes
Protocol: We then generated murine CD8+ cells with TCR that recognizes MHC class I loaded H250 (1) by vaccinating C57BL/6 mice with an extended version of H250 and subsequently harvesting lymphocytes as a source of CD8+ T cells. LLC1 cells were treated with control or H1299.3-targeted liposomes containing H250, washed, and then incubated.
After allowing trafficking of the peptides to occur, the LLC1 cells were fixed and cocultured with lymphocytes as previously described.

Compound	Effect of inhibitor on IFNγ secretion / H250 presentation
CN(C)CCCN1c2ccccc2Sc2ccc(Cl)cc21 [Chlorpromazine]	reduced presentation
CCN(CC)CCCC(C)Nc1ccnc2cc(Cl)ccc12 (stereo not drawn) [chloroquine]	significant reduction in IFNγ secretion
C[C@@H]1[C@H](O)[C@@H](C)/C=C/C=C/CC/C=C/C=C/C=C/C=C/C(O[C@H]2O[C@H](C)[C@@H](O)[C@H](N)[C@@H]2O)CC2O[C@](O)(CC(O)C(O)CCC(O)CC(O)CC(O)CC(=O)O[C@H]1C)CC(O)C2C(=O)O (stereo partly drawn) [Nystatin]	no effect
